The record followed here is patent US4734418A, “Quinazoline compounds and antihypertensives” (priority 1984, dated 1988).

In one data set the test system is Spontaneously Hypertensive Rats. Nature of the data set: Test 1: antihypertensive effects (systolic tail artery blood pressure) and heart rate in spontaneously hypertensive rats, oral. In kind it is in vivo, rat (male, SHR). The note with it: Rattus norvegicus; SHR, oral 1 mg/Kg, 1 hour; read-out: Antihypertensive effects, change (%) in blood pressure, 1 hour later. An outline of the steps: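 Male SHRs aged 20 weeks or older (350-430 g), with systolic pressure of 180 mmHg or higher, were used in groups of 3-4. Compounds in 0.5% methylcellulose were given orally, mostly at 1 mg/Kg. Systolic tail-artery blood pressure and heart rate were measured together as percent change.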
`CCNc1nc(N2CCN(c3nc(N)c4cc(OC)c(OC)cc4n3)CC2)ncc1C(=O)OCC` [Example 57]: the change in vivo at 1 mg/kg was -10.4%.

Take `COc1cc2nc(N3CCN(c4ncc5c(n4)CCCC(=O)N5)CC3)nc(N)c2cc1OC` [Example 31]: the change in vivo at 1 mg/kg is -2.8%.

`COc1cc2nc(N3CCN(c4ncc5c(=O)[nH]ccc5n4)CC3)nc(N)c2cc1OC` [Example 3]: the change in vivo at 1 mg/kg was -2.5%.

Regarding `CCOC(=O)c1cnc(N2CCN(c3nc(N)c4cc(OC)c(OC)cc4n3)CC2)nc1O` [Example 50], the change in vivo at 1 mg/kg is -1.5%.

On to `COc1cc2nc(N3CCN(c4ncc5c(n4)CC(c4ccccc4)NC5=O)CC3)nc(N)c2cc1OC` (stereo not drawn) [Example 19], for which the change in vivo at 1 mg/kg is -2.4%.

Consider `CCNC(=O)c1cnc(N2CCN(c3nc(N)c4cc(OC)c(OC)cc4n3)CC2)nc1` [Example 37], for which the change in vivo at 1 mg/kg was -4.7%.

As to `COc1cc2nc(N3CCN(c4ncc(C(=O)N(C)C)c(C)n4)CC3)nc(N)c2cc1OC` [Example 46], the change in vivo at 1 mg/kg stood at 0%.

As to `CCNc1nc(N2CCN(c3nc(N)c4cc(OC)c(OC)cc4n3)CC2)ncc1C(=O)N(C)C` [Example 79], the change in vivo at 1 mg/kg is -27.9%.

With `COc1cc2nc(N3CCN(c4ccc5ccccc5n4)CC3)nc(N)c2cc1OC.Cl` [Example 94, 4-Amino-6,7-dimethoxy-2-(4-(2-quinolyl)piperazino)quinazoline hydrochloride], the change in vivo at 1 mg/kg is -0.5%.

`CCOc1nccc2nc(N3CCN(c4nc(N)c5cc(OC)c(OC)cc5n4)CC3)ncc12` [Example 74]: the change in vivo at 1 mg/kg was -0.5%.

The same data set, now with this note: Rattus norvegicus; SHR, oral 1 mg/Kg, 3 hours; read-out: Antihypertensive effects, change (%) in blood pressure, 3 hours later.
For the molecule `CCNc1nc(N2CCN(c3nc(N)c4cc(OC)c(OC)cc4n3)CC2)ncc1C(=O)OCC` [Example 57], the change in vivo at 1 mg/kg is -18.9%.

For `COc1cc2nc(N3CCN(c4ncc5c(n4)CCCC(=O)N5)CC3)nc(N)c2cc1OC` [Example 31], the change in vivo at 1 mg/kg was -8.5%.

On to `COc1cc2nc(N3CCN(c4ncc5c(=O)[nH]ccc5n4)CC3)nc(N)c2cc1OC` [Example 3], for which the change in vivo at 1 mg/kg is -8%.

`COc1cc2nc(N3CCN(c4ncc5c(n4)CC(c4ccccc4)NC5=O)CC3)nc(N)c2cc1OC` (stereo not drawn) [Example 19]: the change in vivo at 1 mg/kg was -10.1%.

As for `CCNC(=O)c1cnc(N2CCN(c3nc(N)c4cc(OC)c(OC)cc4n3)CC2)nc1` [Example 37], the change in vivo at 1 mg/kg was -16.4%.

For the molecule `COc1cc2nc(N3CCN(c4ncc(C(=O)N(C)C)c(C)n4)CC3)nc(N)c2cc1OC` [Example 46], the change in vivo at 1 mg/kg was -11.9%.

As to `CCNc1nc(N2CCN(c3nc(N)c4cc(OC)c(OC)cc4n3)CC2)ncc1C(=O)N(C)C` [Example 79], the change in vivo at 1 mg/kg was -33.7%.

In the case of `COc1cc2nc(N3CCN(c4ccc5ccccc5n4)CC3)nc(N)c2cc1OC.Cl` [Example 94, 4-Amino-6,7-dimethoxy-2-(4-(2-quinolyl)piperazino)quinazoline hydrochloride], the change in vivo at 1 mg/kg is -12.7%.

In the case of `CCOc1nccc2nc(N3CCN(c4nc(N)c5cc(OC)c(OC)cc5n4)CC3)ncc12` [Example 74], the change in vivo at 1 mg/kg was -14.1%.

The data set is the same for the next values; noted with them: Rattus norvegicus; SHR, oral 1 mg/Kg, 6 hours; read-out: Antihypertensive effects, change (%) in blood pressure, 6 hours later.
As to `CCNc1nc(N2CCN(c3nc(N)c4cc(OC)c(OC)cc4n3)CC2)ncc1C(=O)OCC` [Example 57], the change in vivo at 1 mg/kg was -27.9%.

`COc1cc2nc(N3CCN(c4ncc5c(n4)CCCC(=O)N5)CC3)nc(N)c2cc1OC` [Example 31]: the change in vivo at 1 mg/kg is -17.8%.

Consider `COc1cc2nc(N3CCN(c4ncc5c(=O)[nH]ccc5n4)CC3)nc(N)c2cc1OC` [Example 3], for which the change in vivo at 1 mg/kg is -15.1%.

In the case of `CCOC(=O)c1cnc(N2CCN(c3nc(N)c4cc(OC)c(OC)cc4n3)CC2)nc1O` [Example 50], the change in vivo at 1 mg/kg was -14.6%.

`COc1cc2nc(N3CCN(c4ncc5c(n4)CC(c4ccccc4)NC5=O)CC3)nc(N)c2cc1OC` (stereo not drawn) [Example 19]: the change in vivo at 1 mg/kg was -11.1%.

For `CCNC(=O)c1cnc(N2CCN(c3nc(N)c4cc(OC)c(OC)cc4n3)CC2)nc1` [Example 37], the change in vivo at 1 mg/kg is -21.1%.

Take `COc1cc2nc(N3CCN(c4ncc(C(=O)N(C)C)c(C)n4)CC3)nc(N)c2cc1OC` [Example 46]: the change in vivo at 1 mg/kg was -17.5%.

With `CCNc1nc(N2CCN(c3nc(N)c4cc(OC)c(OC)cc4n3)CC2)ncc1C(=O)N(C)C` [Example 79], the change in vivo at 1 mg/kg was -45.2%.

Consider `COc1cc2nc(N3CCN(c4ccc5ccccc5n4)CC3)nc(N)c2cc1OC.Cl` [Example 94, 4-Amino-6,7-dimethoxy-2-(4-(2-quinolyl)piperazino)quinazoline hydrochloride], for which the change in vivo at 1 mg/kg was -22.1%.

Turning to `CCOc1nccc2nc(N3CCN(c4nc(N)c5cc(OC)c(OC)cc5n4)CC3)ncc12` [Example 74], the change in vivo at 1 mg/kg was -23.3%.

Staying with this data set, now noted: Rattus norvegicus; SHR, oral 1 mg/Kg, 24 hours; read-out: Antihypertensive effects, change (%) in blood pressure, 24 hours later.
With `CCNc1nc(N2CCN(c3nc(N)c4cc(OC)c(OC)cc4n3)CC2)ncc1C(=O)OCC` [Example 57], the change in vivo at 1 mg/kg was -9%.

With `COc1cc2nc(N3CCN(c4ncc5c(n4)CCCC(=O)N5)CC3)nc(N)c2cc1OC` [Example 31], the change in vivo at 1 mg/kg is -3.8%.

Consider `COc1cc2nc(N3CCN(c4ncc5c(=O)[nH]ccc5n4)CC3)nc(N)c2cc1OC` [Example 3], for which the change in vivo at 1 mg/kg was -5%.

As for `CCOC(=O)c1cnc(N2CCN(c3nc(N)c4cc(OC)c(OC)cc4n3)CC2)nc1O` [Example 50], the change in vivo at 1 mg/kg is -6.3%.

`COc1cc2nc(N3CCN(c4ncc5c(n4)CC(c4ccccc4)NC5=O)CC3)nc(N)c2cc1OC` (stereo not drawn) [Example 19]: the change in vivo at 1 mg/kg is -2.9%.

For the molecule `CCNC(=O)c1cnc(N2CCN(c3nc(N)c4cc(OC)c(OC)cc4n3)CC2)nc1` [Example 37], the change in vivo at 1 mg/kg is -8.5%.

Take `COc1cc2nc(N3CCN(c4ncc(C(=O)N(C)C)c(C)n4)CC3)nc(N)c2cc1OC` [Example 46]: the change in vivo at 1 mg/kg is -5.7%.

As for `CCNc1nc(N2CCN(c3nc(N)c4cc(OC)c(OC)cc4n3)CC2)ncc1C(=O)N(C)C` [Example 79], the change in vivo at 1 mg/kg was -21.2%.

As to `COc1cc2nc(N3CCN(c4ccc5ccccc5n4)CC3)nc(N)c2cc1OC.Cl` [Example 94, 4-Amino-6,7-dimethoxy-2-(4-(2-quinolyl)piperazino)quinazoline hydrochloride], the change in vivo at 1 mg/kg is -5.4%.

For `CCOc1nccc2nc(N3CCN(c4nc(N)c5cc(OC)c(OC)cc5n4)CC3)ncc12` [Example 74], the change in vivo at 1 mg/kg was -12.1%.

The same data set, now with this note: SHR, oral 1 mg/Kg, maximum value.
On to `CCNc1nc(N2CCN(c3nc(N)c4cc(OC)c(OC)cc4n3)CC2)ncc1C(=O)OCC` [Example 57], for which the “Change (%) in heart rate” value was “+4.3%”.

On to `COc1cc2nc(N3CCN(c4ncc5c(=O)[nH]ccc5n4)CC3)nc(N)c2cc1OC` [Example 3], for which the “Change (%) in heart rate” value is recorded as “+7.1%”.

As for `CCOC(=O)c1cnc(N2CCN(c3nc(N)c4cc(OC)c(OC)cc4n3)CC2)nc1O` [Example 50], the “Change (%) in heart rate” value is “+2.9%”.

Consider `COc1cc2nc(N3CCN(c4ncc5c(n4)CC(c4ccccc4)NC5=O)CC3)nc(N)c2cc1OC` (stereo not drawn) [Example 19], for which the “Change (%) in heart rate” value is “+2.9%”.

For `CCNC(=O)c1cnc(N2CCN(c3nc(N)c4cc(OC)c(OC)cc4n3)CC2)nc1` [Example 37], the “Change (%) in heart rate” value is “+5.8%”.

On to `COc1cc2nc(N3CCN(c4ncc(C(=O)N(C)C)c(C)n4)CC3)nc(N)c2cc1OC` [Example 46], for which the “Change (%) in heart rate” value was “+7.4%”.

Turning to `CCNc1nc(N2CCN(c3nc(N)c4cc(OC)c(OC)cc4n3)CC2)ncc1C(=O)N(C)C` [Example 79], the “Change (%) in heart rate” value is recorded as “+22.3%”.

Consider `COc1cc2nc(N3CCN(c4ccc5ccccc5n4)CC3)nc(N)c2cc1OC.Cl` [Example 94, 4-Amino-6,7-dimethoxy-2-(4-(2-quinolyl)piperazino)quinazoline hydrochloride], for which the “Change (%) in heart rate” value was “+5.4%”.

Consider `CCOc1nccc2nc(N3CCN(c4nc(N)c5cc(OC)c(OC)cc5n4)CC3)ncc12` [Example 74], for which the “Change (%) in heart rate” value was “+9.0%”.
